{
  "source": "ChEMBL document CHEMBL1201862",
  "about": "“PubChem BioAssay data set” (2004)",
  "key": {"[1]": {"molecular_target": "Eukaryotic translation initiation factor 4H (Homo sapiens, UniProt Q15056)", "experiment": "human eIF4H binding inhibitors, primary screen, translation initiation inhibitor project, biochemical, uHTS, fluorescence polarization (AID 2012)"}, "[2]": {"molecular_target": "Polyadenylate-binding protein 1 (Homo sapiens, UniProt P11940)", "sequence (P11940 whole entry)": "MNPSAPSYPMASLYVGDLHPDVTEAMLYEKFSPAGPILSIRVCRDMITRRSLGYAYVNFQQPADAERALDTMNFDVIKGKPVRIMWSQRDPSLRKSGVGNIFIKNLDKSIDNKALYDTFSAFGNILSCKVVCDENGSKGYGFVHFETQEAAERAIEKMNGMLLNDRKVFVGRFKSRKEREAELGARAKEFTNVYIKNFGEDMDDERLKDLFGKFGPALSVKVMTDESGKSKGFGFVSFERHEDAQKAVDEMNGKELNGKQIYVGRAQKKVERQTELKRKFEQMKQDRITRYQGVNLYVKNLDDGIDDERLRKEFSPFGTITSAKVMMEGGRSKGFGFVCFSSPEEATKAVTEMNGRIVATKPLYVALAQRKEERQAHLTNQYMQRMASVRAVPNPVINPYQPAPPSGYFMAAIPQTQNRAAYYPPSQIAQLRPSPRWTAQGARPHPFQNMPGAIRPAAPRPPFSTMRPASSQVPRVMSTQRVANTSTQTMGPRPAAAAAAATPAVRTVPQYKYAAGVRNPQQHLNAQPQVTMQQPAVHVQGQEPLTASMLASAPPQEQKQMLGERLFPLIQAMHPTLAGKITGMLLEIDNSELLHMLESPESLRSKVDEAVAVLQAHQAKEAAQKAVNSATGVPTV", "experiment": "PABP poly(A) RNA binding inhibitors, primary screen, biochemical, fluorescence polarization, uHTS (AID 2014)"}, "[3]": {"molecular_target": "T1, Eukaryotic translation initiation factor 2-alpha kinase 3 (Homo sapiens, UniProt Q9NZJ5)", "T1 sequence (Q9NZJ5 whole entry)": "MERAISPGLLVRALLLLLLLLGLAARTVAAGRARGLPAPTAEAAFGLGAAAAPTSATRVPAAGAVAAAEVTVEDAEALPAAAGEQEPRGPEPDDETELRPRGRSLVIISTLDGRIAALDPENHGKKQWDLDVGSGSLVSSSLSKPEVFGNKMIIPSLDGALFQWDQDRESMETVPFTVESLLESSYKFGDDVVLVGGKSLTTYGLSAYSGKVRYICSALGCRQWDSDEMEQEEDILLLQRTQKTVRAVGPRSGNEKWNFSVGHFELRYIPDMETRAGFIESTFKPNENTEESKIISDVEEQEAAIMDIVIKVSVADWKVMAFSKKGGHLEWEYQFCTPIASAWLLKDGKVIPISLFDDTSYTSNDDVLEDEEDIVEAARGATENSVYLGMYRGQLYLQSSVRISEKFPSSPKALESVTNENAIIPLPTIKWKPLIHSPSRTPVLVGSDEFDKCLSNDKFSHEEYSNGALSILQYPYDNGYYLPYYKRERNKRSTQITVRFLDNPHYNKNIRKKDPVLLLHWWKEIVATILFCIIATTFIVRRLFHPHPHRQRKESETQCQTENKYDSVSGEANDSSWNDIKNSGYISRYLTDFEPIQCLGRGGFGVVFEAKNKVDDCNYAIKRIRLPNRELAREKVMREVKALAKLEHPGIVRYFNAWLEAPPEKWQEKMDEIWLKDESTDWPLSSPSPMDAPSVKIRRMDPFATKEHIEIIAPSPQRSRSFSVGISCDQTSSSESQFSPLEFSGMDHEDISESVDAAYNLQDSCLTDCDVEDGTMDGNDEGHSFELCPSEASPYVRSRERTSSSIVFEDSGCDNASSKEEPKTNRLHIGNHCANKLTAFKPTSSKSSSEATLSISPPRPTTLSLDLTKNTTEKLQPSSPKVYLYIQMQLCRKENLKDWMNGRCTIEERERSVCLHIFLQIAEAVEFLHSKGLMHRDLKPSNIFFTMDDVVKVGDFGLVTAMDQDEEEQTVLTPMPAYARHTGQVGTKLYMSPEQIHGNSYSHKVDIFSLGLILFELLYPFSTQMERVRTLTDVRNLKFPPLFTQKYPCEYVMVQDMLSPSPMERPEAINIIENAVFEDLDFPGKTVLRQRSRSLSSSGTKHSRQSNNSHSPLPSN", "experiment": "Dose response cell-based high-throughput screening assay to measure PERK inhibition. [Related pubchem assays: 1416 ]", "type": "functional"}, "[4]": {"molecular_target": "T1, Eukaryotic translation initiation factor 2-alpha kinase 3", "experiment": "Counterscreen assay for PERK inhibitors: Dose response cell-based high throughput screening assay to measure inhibition of PERK at 6 hours. [Related pubchem assays: 1522, 1416 ]", "type": "functional"}, "[5]": {"molecular_target": "Peroxisome proliferator-activated receptor gamma/Nuclear receptor corepressor 2 (Homo sapiens, UniProt P37231+Q9Y618)", "type": "functional"}, "[6]": {"molecular_target": "Photoreceptor-specific nuclear receptor (Homo sapiens, UniProt Q9Y5X4)", "type": "functional"}, "[7]": {"molecular_target": "Dual specificity protein phosphatase 3 (Homo sapiens, UniProt P51452)", "sequence (P51452 whole entry)": "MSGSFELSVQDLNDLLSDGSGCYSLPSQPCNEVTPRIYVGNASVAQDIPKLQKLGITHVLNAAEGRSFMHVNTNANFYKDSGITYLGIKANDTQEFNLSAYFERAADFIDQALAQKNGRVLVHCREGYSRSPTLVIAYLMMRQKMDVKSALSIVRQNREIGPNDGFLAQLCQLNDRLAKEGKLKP", "experiment": "VHR1 inhibitor Ki determination, SAR follow-up, biochemical, colorimetric (AID 2004)"}, "[8]": {"experiment": "Luminescent dose response cell-based high throughput screening assay for inhibitors of the Janus kinase 2 mutant JAK2V617F. [Related pubchem assays: 1446 (Primary screen.), 1521 (Confirmation assay.), 1486 (Counter screen.)]", "type": "functional"}, "[9]": {"system": "BJ", "experiment": "cytotoxicity toward BJ-TERT fibroblasts, dose response, cell-based, RAS-independent, luminescence (AID 1933)", "type": "functional", "conditions": "Homo sapiens"}, "[10]": {"system": "BJ", "experiment": "cytotoxicity toward BJ-TERT-LT-ST fibroblasts, dose response, cell-based, RAS-independent, luminescence (AID 1935);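 also: BJ fibroblasts immortalized with TERT plus LT and ST oncogenes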", "type": "functional", "conditions": "Homo sapiens"}, "[11]": {"molecular_target": "T2, Protein RecA (Mycobacterium tuberculosis, UniProt P9WHJ3)", "T2 sequence (P9WHJ3 whole entry)": "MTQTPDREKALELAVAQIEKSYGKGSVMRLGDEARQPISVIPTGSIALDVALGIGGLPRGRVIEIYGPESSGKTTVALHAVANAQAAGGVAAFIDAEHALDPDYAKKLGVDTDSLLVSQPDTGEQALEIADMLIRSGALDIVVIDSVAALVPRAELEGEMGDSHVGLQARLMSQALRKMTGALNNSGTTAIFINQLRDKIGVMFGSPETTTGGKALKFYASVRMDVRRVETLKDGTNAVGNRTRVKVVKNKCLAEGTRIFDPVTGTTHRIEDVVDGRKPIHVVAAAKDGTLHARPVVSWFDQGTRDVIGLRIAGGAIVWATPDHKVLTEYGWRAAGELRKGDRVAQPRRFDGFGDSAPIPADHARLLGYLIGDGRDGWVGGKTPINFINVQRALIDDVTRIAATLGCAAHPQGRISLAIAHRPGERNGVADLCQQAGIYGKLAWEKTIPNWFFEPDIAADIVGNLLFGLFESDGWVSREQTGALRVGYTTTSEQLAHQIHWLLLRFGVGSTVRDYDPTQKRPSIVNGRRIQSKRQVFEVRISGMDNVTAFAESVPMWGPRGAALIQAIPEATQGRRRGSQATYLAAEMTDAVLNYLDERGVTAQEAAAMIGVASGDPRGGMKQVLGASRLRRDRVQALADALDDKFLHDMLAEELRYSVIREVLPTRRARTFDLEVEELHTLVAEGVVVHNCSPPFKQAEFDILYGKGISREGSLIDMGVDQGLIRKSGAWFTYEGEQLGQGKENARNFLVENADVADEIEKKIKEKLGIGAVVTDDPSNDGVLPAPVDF", "experiment": "Fluorescence Cell-Free Homogeneous Dose Retest to Identify Inhibitors of RecA-Intein Splicing Activity. [Related pubchem assays (depositor defined):AID2097, AID2223, AID489010, AID492950]", "type": "functional"}, "[12]": {"molecular_target": "T3, Replicative DNA helicase DnaB (Mycobacterium tuberculosis, UniProt P9WMR3)", "T3 sequence (P9WMR3 whole entry)": "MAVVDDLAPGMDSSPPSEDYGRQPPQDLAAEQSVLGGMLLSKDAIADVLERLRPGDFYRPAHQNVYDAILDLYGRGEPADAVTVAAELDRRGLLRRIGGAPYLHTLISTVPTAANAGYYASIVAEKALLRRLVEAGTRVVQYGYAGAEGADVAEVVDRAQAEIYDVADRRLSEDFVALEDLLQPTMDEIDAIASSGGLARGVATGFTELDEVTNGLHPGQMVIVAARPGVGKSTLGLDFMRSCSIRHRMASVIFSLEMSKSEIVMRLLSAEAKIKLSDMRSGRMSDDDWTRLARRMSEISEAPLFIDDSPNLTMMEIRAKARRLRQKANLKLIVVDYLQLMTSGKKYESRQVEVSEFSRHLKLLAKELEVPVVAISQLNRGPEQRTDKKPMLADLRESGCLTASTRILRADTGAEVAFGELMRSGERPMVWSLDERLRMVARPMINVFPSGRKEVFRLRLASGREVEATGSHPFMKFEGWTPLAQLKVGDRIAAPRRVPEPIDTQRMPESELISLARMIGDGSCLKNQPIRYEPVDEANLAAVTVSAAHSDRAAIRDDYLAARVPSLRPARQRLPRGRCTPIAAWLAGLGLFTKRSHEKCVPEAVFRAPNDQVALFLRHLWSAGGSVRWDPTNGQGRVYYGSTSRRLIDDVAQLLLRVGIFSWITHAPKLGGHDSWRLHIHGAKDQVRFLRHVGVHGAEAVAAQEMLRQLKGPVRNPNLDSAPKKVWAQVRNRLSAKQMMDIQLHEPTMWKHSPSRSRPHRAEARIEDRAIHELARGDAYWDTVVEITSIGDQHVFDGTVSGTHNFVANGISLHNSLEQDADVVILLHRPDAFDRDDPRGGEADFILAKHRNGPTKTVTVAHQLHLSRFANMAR", "experiment": "DnaB intein splicing inhibitors, dose response, biochemical, cell-free fluorescence (AID 449749)", "type": "functional"}, "[13]": {"system": "HEK293", "experiment": "cells", "type": "functional, cell-based", "conditions": "Homo sapiens"}, "[14]": {"molecular_target": "T4, Heat shock factor protein 1 (Mus musculus, UniProt P38532)", "T4 sequence (P38532 whole entry)": "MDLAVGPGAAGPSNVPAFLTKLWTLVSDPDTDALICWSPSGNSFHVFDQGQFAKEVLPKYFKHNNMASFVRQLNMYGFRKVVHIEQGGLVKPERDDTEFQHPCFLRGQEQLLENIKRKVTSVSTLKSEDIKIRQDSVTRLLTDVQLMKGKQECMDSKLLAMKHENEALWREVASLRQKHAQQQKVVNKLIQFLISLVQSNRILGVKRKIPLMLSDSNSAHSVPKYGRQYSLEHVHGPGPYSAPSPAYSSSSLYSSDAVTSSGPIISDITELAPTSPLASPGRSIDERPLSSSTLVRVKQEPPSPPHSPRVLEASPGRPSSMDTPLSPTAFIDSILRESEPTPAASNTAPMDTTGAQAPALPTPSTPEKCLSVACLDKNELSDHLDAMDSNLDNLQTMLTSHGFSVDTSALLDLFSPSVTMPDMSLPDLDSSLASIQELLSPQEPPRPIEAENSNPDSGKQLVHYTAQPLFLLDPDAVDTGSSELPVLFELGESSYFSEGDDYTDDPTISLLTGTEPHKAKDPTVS", "experiment": "HSF1 potentiators in luciferase reporter cells, confirmation, cell-based, NIH3T3, luminescence, dose retest (AID 435004);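 also: stress induced by proteasome inhibitor MG132 added 30 min after compound; actives raise luminescence as potentiators of the MG132 stress response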", "type": "functional"}, "[15]": {"system": "HEK293", "experiment": "cells", "type": "functional, cell-based", "conditions": "Homo sapiens", "remark": "listed apart in the source"}, "[16]": {"experiment": "cytotoxicity toward DRD oncogenic fibroblasts, dose response, cell-based, non-viral oncogenic, luminescence (AID 1934)", "type": "functional", "conditions": "Homo sapiens"}, "[17]": {"system": "HEK293", "experiment": "NOD1 signaling inhibitors, primary screen, cell-based, luminescence, uHTS (AID 1578)", "type": "functional", "conditions": "Homo sapiens"}, "[18]": {"molecular_target": "Transitional endoplasmic reticulum ATPase (Homo sapiens, UniProt P55072, C522A)", "sequence (P55072 2-806 C522A limits assumed)": "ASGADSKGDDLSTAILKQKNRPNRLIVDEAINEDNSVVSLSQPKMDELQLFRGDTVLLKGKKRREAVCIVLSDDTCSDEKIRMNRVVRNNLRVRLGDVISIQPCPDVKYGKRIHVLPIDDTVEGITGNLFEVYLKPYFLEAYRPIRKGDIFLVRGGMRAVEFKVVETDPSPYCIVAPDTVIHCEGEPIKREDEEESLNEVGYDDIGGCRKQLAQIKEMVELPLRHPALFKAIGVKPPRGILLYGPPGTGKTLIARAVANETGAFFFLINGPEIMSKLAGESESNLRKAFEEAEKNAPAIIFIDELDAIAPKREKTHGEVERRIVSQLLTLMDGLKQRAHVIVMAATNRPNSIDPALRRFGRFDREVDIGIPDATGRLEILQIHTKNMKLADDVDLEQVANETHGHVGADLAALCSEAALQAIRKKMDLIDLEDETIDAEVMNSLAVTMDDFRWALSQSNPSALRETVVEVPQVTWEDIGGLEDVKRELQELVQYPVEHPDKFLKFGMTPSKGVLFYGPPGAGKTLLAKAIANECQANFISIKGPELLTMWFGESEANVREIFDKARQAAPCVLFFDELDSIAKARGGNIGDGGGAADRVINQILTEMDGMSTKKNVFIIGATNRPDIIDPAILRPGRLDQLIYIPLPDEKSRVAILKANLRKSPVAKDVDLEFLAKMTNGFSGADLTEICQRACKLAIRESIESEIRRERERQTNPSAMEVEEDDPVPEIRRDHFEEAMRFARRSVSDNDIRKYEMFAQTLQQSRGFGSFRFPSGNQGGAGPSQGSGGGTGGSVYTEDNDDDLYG", "experiment": "C522A mutant p97 ATPase inhibitors, dose response, counter-screen for p97 inhibitor project, biochemical, luminescence (AID 1544)"}, "[19]": {"system": "BJ", "experiment": "cells", "type": "functional, cell-based", "conditions": "Homo sapiens"}, "[20]": {"molecular_target": "Nucleotide-binding oligomerization domain-containing protein 1 (Homo sapiens, UniProt Q9Y239)", "sequence (Q9Y239 whole entry, the tested form may be a part)": "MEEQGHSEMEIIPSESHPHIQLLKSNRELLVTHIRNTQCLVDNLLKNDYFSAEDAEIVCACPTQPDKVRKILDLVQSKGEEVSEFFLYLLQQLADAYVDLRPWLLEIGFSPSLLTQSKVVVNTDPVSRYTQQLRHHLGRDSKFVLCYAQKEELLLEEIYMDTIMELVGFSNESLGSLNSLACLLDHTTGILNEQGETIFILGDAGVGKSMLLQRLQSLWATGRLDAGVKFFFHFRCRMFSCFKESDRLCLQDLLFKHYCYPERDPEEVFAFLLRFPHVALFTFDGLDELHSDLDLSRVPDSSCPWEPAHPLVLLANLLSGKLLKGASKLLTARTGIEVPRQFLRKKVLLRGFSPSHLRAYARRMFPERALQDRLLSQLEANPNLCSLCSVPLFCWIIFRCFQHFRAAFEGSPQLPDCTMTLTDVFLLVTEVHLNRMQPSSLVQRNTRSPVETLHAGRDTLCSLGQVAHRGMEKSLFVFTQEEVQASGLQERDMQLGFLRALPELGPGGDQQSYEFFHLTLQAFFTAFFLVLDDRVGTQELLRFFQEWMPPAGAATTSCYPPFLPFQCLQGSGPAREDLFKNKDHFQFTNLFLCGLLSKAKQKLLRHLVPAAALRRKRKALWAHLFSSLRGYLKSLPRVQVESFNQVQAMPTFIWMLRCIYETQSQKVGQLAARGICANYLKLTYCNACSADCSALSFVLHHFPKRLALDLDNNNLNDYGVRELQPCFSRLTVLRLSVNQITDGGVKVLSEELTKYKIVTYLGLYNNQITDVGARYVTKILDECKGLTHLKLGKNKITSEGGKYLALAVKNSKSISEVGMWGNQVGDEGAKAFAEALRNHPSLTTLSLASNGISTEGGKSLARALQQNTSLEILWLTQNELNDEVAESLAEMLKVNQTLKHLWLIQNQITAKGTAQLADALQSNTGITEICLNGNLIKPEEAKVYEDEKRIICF", "experiment": "NOD1 signaling inhibitors, SAR follow-up, revised (AID 2333)", "type": "functional"}, "[21]": {"molecular_target": "Transitional endoplasmic reticulum ATPase (Homo sapiens, UniProt P55072)", "sequence (P55072 whole entry)": "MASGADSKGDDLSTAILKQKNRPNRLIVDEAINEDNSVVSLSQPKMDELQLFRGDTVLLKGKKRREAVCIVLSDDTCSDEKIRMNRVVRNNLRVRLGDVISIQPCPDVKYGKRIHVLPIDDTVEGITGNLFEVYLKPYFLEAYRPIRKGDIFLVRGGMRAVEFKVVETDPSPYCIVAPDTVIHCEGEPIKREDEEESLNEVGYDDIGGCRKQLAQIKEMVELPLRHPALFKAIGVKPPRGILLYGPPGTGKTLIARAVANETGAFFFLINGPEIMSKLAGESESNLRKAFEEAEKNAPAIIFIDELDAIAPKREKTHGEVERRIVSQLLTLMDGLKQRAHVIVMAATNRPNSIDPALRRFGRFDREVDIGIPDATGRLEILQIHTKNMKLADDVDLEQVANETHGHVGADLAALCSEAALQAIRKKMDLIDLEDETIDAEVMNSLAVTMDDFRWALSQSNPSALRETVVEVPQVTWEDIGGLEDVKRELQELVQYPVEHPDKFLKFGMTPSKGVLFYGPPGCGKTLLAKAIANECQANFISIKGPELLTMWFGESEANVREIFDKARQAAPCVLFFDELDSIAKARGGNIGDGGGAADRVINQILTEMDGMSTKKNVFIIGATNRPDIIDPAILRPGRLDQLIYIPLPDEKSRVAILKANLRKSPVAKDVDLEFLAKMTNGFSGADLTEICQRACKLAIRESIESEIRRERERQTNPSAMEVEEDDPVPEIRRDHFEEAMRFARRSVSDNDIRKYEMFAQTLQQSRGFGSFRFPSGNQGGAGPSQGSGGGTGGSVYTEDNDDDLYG", "experiment": "p97 ATPase inhibitors, dose response, biochemical (AID 1534)"}, "[22]": {"system": "HEK293", "experiment": "NOD2 signaling inhibitors in MDP-stimulated cells, cell-based, uHTS, luminescence (AID 2001)", "type": "functional", "conditions": "Homo sapiens"}, "[23]": {"system": "HEK293", "experiment": "cells", "conditions": "Homo sapiens"}, "[24]": {"system": "Vero", "experiment": "cells", "type": "functional", "conditions": "Chlorocebus sabaeus"}, "[25]": {"molecular_target": "Tumor necrosis factor (Homo sapiens, UniProt P01375)", "sequence (P01375 whole entry)": "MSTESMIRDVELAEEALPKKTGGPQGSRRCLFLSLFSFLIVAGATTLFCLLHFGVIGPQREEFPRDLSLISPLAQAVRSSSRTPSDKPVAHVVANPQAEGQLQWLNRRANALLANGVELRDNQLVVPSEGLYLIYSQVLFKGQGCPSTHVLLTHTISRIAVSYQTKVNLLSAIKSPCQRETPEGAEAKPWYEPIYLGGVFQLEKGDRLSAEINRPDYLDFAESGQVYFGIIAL", "experiment": "TNFa-triggered NF-kB activation inhibitors, SAR follow-up, cell-based, revised (AID 2337)", "type": "functional"}, "[26]": {"system": "BJ", "experiment": "cytotoxicity toward Ras-transformed BJeLR fibroblasts, dose response, cell-based, alamar blue fluorescence, cherrypicked samples (AID 2631);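 also: confirmatory dose-response assay in RAS-dependent BJ fibroblasts engineered with TERT, LT and ST, with cytotoxicity read by fluorescence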", "type": "functional", "conditions": "Homo sapiens"}},
  "note": "Activity calls are given as the source filed them.",
  "data": [
    {"molecule": "C[N+]1(C)[C@@H]2CC[C@H]1CC(OC(=O)[C@@H](CO)c1ccccc1)C2", "note": "(stereo partly specified)", "values": [
      {"measurement": "IC50", "setting": "[1]", "value": "> 100 µM (inactive)"},
      {"measurement": "IC50", "setting": "[2]", "value": "4.91 µM (active)"}
    ]},
    {"molecule": "CCCn1cnc2c(S)nc(N)nc21", "values": [
      {"measurement": "EC50", "setting": "[3]", "value": "> 55.7 µM (not active)"},
      {"measurement": "EC50", "setting": "[4]", "value": "> 55.7 µM (not active)"}
    ]},
    {"molecule": "Cc1cc(-c2ccc(Cl)cc2)c(C#N)c(N)n1", "values": [
      {"measurement": "IC50", "setting": "[5]", "value": "3.26 µM (active)"},
      {"measurement": "IC50", "setting": "[6]", "value": "33 µM (not active)"}
    ]},
    {"molecule": "CCC(CO)N/C=C1\\C(=O)N(c2c(Cl)cccc2Cl)c2ccccc21", "note": "(stereo unspecified)", "values": [
      {"measurement": "Ki", "setting": "[7]", "value": "24.2 µM (inactive)"}
    ]},
    {"molecule": "Nc1nc(CCl)nc(Nc2ccc3ccccc3c2)n1", "values": [
      {"measurement": "IC50", "setting": "[8]", "value": "0.476 µM (active)"},
      {"measurement": "EC50", "setting": "[9]", "value": "< 0.12 µM (active)"},
      {"measurement": "EC50", "setting": "[10]", "value": "8.32 µM (inconclusive)"},
      {"measurement": "EC50", "setting": "[11]", "value": "19.4 µM (active)"},
      {"measurement": "AC50", "setting": "[12]", "value": "15.4 µM (active)"},
      {"measurement": "IC50", "setting": "[13]", "value": "> 20 µM (inactive)"},
      {"measurement": "EC50", "setting": "[14]", "value": "> 260 µM (inactive)"},
      {"measurement": "IC50", "setting": "[15]", "value": "5.4 µM (active)"},
      {"measurement": "EC50", "setting": "[16]", "value": "0.289 µM (active)"},
      {"measurement": "EC50", "setting": "[17]", "value": "11.1 µM (active)"},
      {"measurement": "IC50", "setting": "[18]", "value": "> 50 µM (not active)"},
      {"measurement": "EC50", "setting": "[19]", "value": "0.717 µM (inconclusive)"},
      {"measurement": "IC50", "setting": "[20]", "value": "3.43 µM (active)"},
      {"measurement": "IC50", "setting": "[21]", "value": "> 50 µM (not active)"},
      {"measurement": "IC50", "setting": "[22]", "value": "7.7 µM (active)"},
      {"measurement": "IC50", "setting": "[23]", "value": "> 20 µM (inactive)"},
      {"measurement": "CC50", "setting": "[24]", "value": "1.24 µM (active)"},
      {"measurement": "IC50", "setting": "[25]", "value": "11.1 µM (active)"},
      {"measurement": "EC50", "setting": "[26]", "value": "4.62 µM (active)"}
    ]}
  ]
}
